{
  "source": "patent US6626122B2",
  "about": "“Deactivatable biocides in ballast water” (Chevron U.S.A. Inc, priority 2001, dated 2003)",
  "key": {"bacterial inoculum [1]": {"tested_on": "bacterial inoculum", "assay": "Evaluation of biocides: inhibition of growth on FT diesel and ALAD diesel; as to Growth, Test Results on ALAD Diesel Fuel: key: −: No Growth; +: Growth (White Unless Otherwise Indicated); as to Growth, Test Results on Fischer-Tropsch Diesel Fuel: key: −: No Growth; +: Growth (White Unless Otherwise Indicated)", "format": "cell-based, alkane degrading organisms", "description": "The ability of biocides to inhibit growth on a FT diesel and a low aromatics diesel fuel from Example 1 was investigated.\nTest Conditions: 90 ml of growth media and 10 ml of either FT diesel or low sulfur (ALAD) diesel was added to 250 ml flasks. […] In addition to the 2 alkynes, glutaraldehyde (glutaric dialdehyde 50%), was tested. The following summarizes the test conditions:\n100 ppm inhibitor (on a total test volume basis or 1000 ppm in diesel)\n1% inhibitor (on a total test volume basis or 10% in diesel).\nAfter inoculation, the flasks were place on a shaker-table (135 rpm) at room temperature and observed daily."}, "bacterial inoculum [2]": {"tested_on": "bacterial inoculum", "assay": "Neutralization of biocides with monoethanolamine", "format": "cell-based", "settings": "for Growth, Neutralization of Biocides with MEA: minimal media:FT diesel 10:1; for onset of microbial growth (delayed from 3 days): no MEA", "description": "In all experiments, a 10:1 ratio of minimal media to Fischer-Tropsch diesel fuel were prepared and evaluated in 250 ml flasks.\nIn addition to these experiments, several controls were run without Glutaraldehyde as follows: […]"}, "in vivo": {"assay": "in vivo", "settings": "Cyprinodon variegatus (sheepshead minnow, larval)", "description": "(§1) […]. EPA/600/4-90/027F Washington, D.C.) conducted at Pacific Eco-Risk Laboratories, Martinez, Calif.\n(§2) LOEC is the Lowest Observable Effect Concentration and is defined as the minimum concentration where mortality is observed for the test species. […] LC-50, the concentration that will cause mortality of 50% of the organisms tested within 96 h, is a calculated value based on all observations.\n(§3) The solutions were mixed for 48 hours prior to the start of the bioassays. The solutions were diluted to perform bioassays at starting glutaraldehyde concentrations of 100, 50, 37.5, 25, and 10.5 mg/L. The results are summarized in Table X."}, "[3]": {"tested_on": "Larval Sheepshead Minnow (Cyprinodon variegatus)", "assay": "in vivo", "settings": "Cyprinodon variegatus (sheepshead minnow), 96 h", "description": "as §1, §2, §3"}},
  "data": [
    {"molecule": "O=CCCCC=O", "note": "[G, glutaraldehyde]", "values": [
      {"measurement": "effectiveness as biocide (inhibits microbial growth)", "setting": "bacterial inoculum [1]; ALAD diesel fuel", "value": "effective at a lower concentration"},
      {"measurement": "Growth, Test Results on Fischer-Tropsch Diesel Fuel", "setting": "bacterial inoculum [1]; FT Diesel + 1 Wt % biocide, Day 0", "value": "−"},
      {"measurement": "Growth, Test Results on Fischer-Tropsch Diesel Fuel", "setting": "bacterial inoculum [1]; FT Diesel + 1 Wt % biocide, Day 1", "value": "−"},
      {"measurement": "Growth, Test Results on Fischer-Tropsch Diesel Fuel", "setting": "bacterial inoculum [1]; FT Diesel + 1 Wt % biocide, Day 5", "value": "−"},
      {"measurement": "Growth, Test Results on Fischer-Tropsch Diesel Fuel", "setting": "bacterial inoculum [1]; FT Diesel + 1 Wt % biocide, Day 7", "value": "−"},
      {"measurement": "Growth, Test Results on Fischer-Tropsch Diesel Fuel", "setting": "bacterial inoculum [1]; FT Diesel + 1 Wt % biocide, Day 8", "value": "−"},
      {"measurement": "Growth, Test Results on Fischer-Tropsch Diesel Fuel", "setting": "bacterial inoculum [1]; FT Diesel + 1 Wt % biocide, Day 19", "value": "−"},
      {"measurement": "Growth, Test Results on Fischer-Tropsch Diesel Fuel", "setting": "bacterial inoculum [1]; FT Diesel + 100 ppm biocide, Day 0", "value": "−"},
      {"measurement": "Growth, Test Results on Fischer-Tropsch Diesel Fuel", "setting": "bacterial inoculum [1]; FT Diesel + 100 ppm biocide, Day 1", "value": "−"},
      {"measurement": "Growth, Test Results on Fischer-Tropsch Diesel Fuel", "setting": "bacterial inoculum [1]; FT Diesel + 100 ppm biocide, Day 5", "value": "−"},
      {"measurement": "Growth, Test Results on Fischer-Tropsch Diesel Fuel", "setting": "bacterial inoculum [1]; FT Diesel + 100 ppm biocide, Day 7", "value": "−"},
      {"measurement": "Growth, Test Results on Fischer-Tropsch Diesel Fuel", "setting": "bacterial inoculum [1]; FT Diesel + 100 ppm biocide, Day 8", "value": "−"},
      {"measurement": "Growth, Test Results on Fischer-Tropsch Diesel Fuel", "setting": "bacterial inoculum [1]; FT Diesel + 100 ppm biocide, Day 19", "value": "+"},
      {"measurement": "effectiveness as biocide (inhibits microbial growth)", "setting": "bacterial inoculum [1]; Fischer-Tropsch diesel fuel", "value": "effective at a lower concentration"},
      {"measurement": "Growth, Test Results on ALAD Diesel Fuel", "setting": "bacterial inoculum [1]; LA Diesel + 1 Wt % biocide, Day 0", "value": "−"},
      {"measurement": "Growth, Test Results on ALAD Diesel Fuel", "setting": "bacterial inoculum [1]; LA Diesel + 1 Wt % biocide, Day 1", "value": "−"},
      {"measurement": "Growth, Test Results on ALAD Diesel Fuel", "setting": "bacterial inoculum [1]; LA Diesel + 1 Wt % biocide, Day 5", "value": "−"},
      {"measurement": "Growth, Test Results on ALAD Diesel Fuel", "setting": "bacterial inoculum [1]; LA Diesel + 1 Wt % biocide, Day 7", "value": "−"},
      {"measurement": "Growth, Test Results on ALAD Diesel Fuel", "setting": "bacterial inoculum [1]; LA Diesel + 1 Wt % biocide, Day 8", "value": "−"},
      {"measurement": "Growth, Test Results on ALAD Diesel Fuel", "setting": "bacterial inoculum [1]; LA Diesel + 1 Wt % biocide, Day 19", "value": "−"},
      {"measurement": "Growth, Test Results on ALAD Diesel Fuel", "setting": "bacterial inoculum [1]; LA Diesel + 100 ppm biocide, Day 0", "value": "−"},
      {"measurement": "Growth, Test Results on ALAD Diesel Fuel", "setting": "bacterial inoculum [1]; LA Diesel + 100 ppm biocide, Day 1", "value": "−"},
      {"measurement": "Growth, Test Results on ALAD Diesel Fuel", "setting": "bacterial inoculum [1]; LA Diesel + 100 ppm biocide, Day 5", "value": "−"},
      {"measurement": "Growth, Test Results on ALAD Diesel Fuel", "setting": "bacterial inoculum [1]; LA Diesel + 100 ppm biocide, Day 7", "value": "−"},
      {"measurement": "Growth, Test Results on ALAD Diesel Fuel", "setting": "bacterial inoculum [1]; LA Diesel + 100 ppm biocide, Day 8", "value": "−"},
      {"measurement": "Growth, Test Results on ALAD Diesel Fuel", "setting": "bacterial inoculum [1]; LA Diesel + 100 ppm biocide, Day 19", "value": "−"},
      {"measurement": "Growth, Neutralization of Biocides with MEA", "setting": "bacterial inoculum [2]; 1 ppm G, Time 0 days", "value": "−"},
      {"measurement": "Growth, Neutralization of Biocides with MEA", "setting": "bacterial inoculum [2]; 1 ppm G, Time 1 days", "value": "−"},
      {"measurement": "Growth, Neutralization of Biocides with MEA", "setting": "bacterial inoculum [2]; 1 ppm G, Time 2 days", "value": "−"},
      {"measurement": "Growth, Neutralization of Biocides with MEA", "setting": "bacterial inoculum [2]; 1 ppm G, Time 3 days", "value": "−"},
      {"measurement": "Growth, Neutralization of Biocides with MEA", "setting": "bacterial inoculum [2]; 1 ppm G, Time 7 days", "value": "−"},
      {"measurement": "Growth, Neutralization of Biocides with MEA", "setting": "bacterial inoculum [2]; 1 ppm G, Time 9 days", "value": "+"},
      {"measurement": "Growth, Neutralization of Biocides with MEA", "setting": "bacterial inoculum [2]; 1 ppm G, Time 14 days", "value": "+"},
      {"measurement": "onset of microbial growth (delayed from 3 days)", "setting": "bacterial inoculum [2]; 1 ppm of glutaraldehyde", "value": 9, "unit": "days"},
      {"measurement": "Growth, Neutralization of Biocides with MEA", "setting": "bacterial inoculum [2]; 10 ppm G, Time 0 days", "value": "−"},
      {"measurement": "Growth, Neutralization of Biocides with MEA", "setting": "bacterial inoculum [2]; 10 ppm G, Time 1 days", "value": "−"},
      {"measurement": "Growth, Neutralization of Biocides with MEA", "setting": "bacterial inoculum [2]; 10 ppm G, Time 2 days", "value": "−"},
      {"measurement": "Growth, Neutralization of Biocides with MEA", "setting": "bacterial inoculum [2]; 10 ppm G, Time 3 days", "value": "−"},
      {"measurement": "Growth, Neutralization of Biocides with MEA", "setting": "bacterial inoculum [2]; 10 ppm G, Time 7 days", "value": "−"},
      {"measurement": "Growth, Neutralization of Biocides with MEA", "setting": "bacterial inoculum [2]; 10 ppm G, Time 9 days", "value": "−"},
      {"measurement": "Growth, Neutralization of Biocides with MEA", "setting": "bacterial inoculum [2]; 10 ppm G, Time 14 days", "value": "−"},
      {"measurement": "onset of microbial growth (delayed from 3 days)", "setting": "bacterial inoculum [2]; 10 ppm of glutaraldehyde", "value": "more than 14 days"},
      {"measurement": "Growth, Neutralization of Biocides with MEA", "setting": "bacterial inoculum [2]; 100 ppm G, Time 0 days", "value": "−"},
      {"measurement": "Growth, Neutralization of Biocides with MEA", "setting": "bacterial inoculum [2]; 100 ppm G, Time 1 days", "value": "−"},
      {"measurement": "Growth, Neutralization of Biocides with MEA", "setting": "bacterial inoculum [2]; 100 ppm G, Time 2 days", "value": "−"},
      {"measurement": "Growth, Neutralization of Biocides with MEA", "setting": "bacterial inoculum [2]; 100 ppm G, Time 3 days", "value": "−"},
      {"measurement": "Growth, Neutralization of Biocides with MEA", "setting": "bacterial inoculum [2]; 100 ppm G, Time 7 days", "value": "−"},
      {"measurement": "Growth, Neutralization of Biocides with MEA", "setting": "bacterial inoculum [2]; 100 ppm G, Time 9 days", "value": "−"},
      {"measurement": "Growth, Neutralization of Biocides with MEA", "setting": "bacterial inoculum [2]; 100 ppm G, Time 14 days", "value": "−"},
      {"measurement": "LC50 at 96 h", "setting": "in vivo; 96 h, control experiment, separate compounds", "value": 26, "unit": "µg/mL"},
      {"measurement": "LC50 at 96 h", "setting": "in vivo; second experiment, as starting glutaraldehyde concentration, solutions mixed for 48 hours prior to bioassay", "value": 25, "unit": "µg/mL"},
      {"measurement": "LOEC", "setting": "[3]", "value": 25, "unit": "mg/L"},
      {"measurement": "NOEC", "setting": "[3]", "value": 13, "unit": "mg/L"}
    ]}
  ]
}
